Assay [1] has as its system MM.1S multiple myeloma cell line. Briefly: CellTiter 96 AQueous One Solution cell proliferation assay, MM.1S. The format is cell-based. As to conditions: Homo sapiens, MM1.S, 72 h of treatment, read-out: Cytotoxicity Assay. The text has this: The CellTiter 96® AQueous One Solution cell proliferation assay (Promega) was used on MM.1S multiple myeloma cell line to study the cytotoxic and cytostatic properties of the compounds. The assay is based on the cleavage of the tetrazolium salt, MTS, in the presence of an electron-coupling reagent PES (phenazine ethosulfate). The MTS tetrazolium compound is bioreduced by cells into a colored formazan product that is soluble in tissue culture medium. This conversion is presumably accomplished by NADPH or NADH produced by dehydrogenase enzymes in metabolically active cells. Assays are performed by adding a small amount of the CellTiter 96® AQueous One solution reagent directly to culture wells, incubating for 1-4 hours and then recording the absorbance at 490 nm with a 96-well plate reader.
(§1) The cells were seeded at 5×10^3 to 1.5×10^4 cells in each well of a 96-well plate in 100 μL of fresh culture medium and adherent cells were allowed to attach overnight. The stock solutions of the compounds were diluted in cell culture medium to obtain eight concentrations of each drug, ranging from 1 nM to 30 μM and DMSO at less than 1% v/v was used as a negative control. The resulting drug solutions were transferred onto the cells. After 72 h of treatment, 20 μl of CellTiter 96® AQueous reagent was added into each well of the 96-well assay plates and the plate was incubated at 37° C. for 1-4 hours in a humidified, 5% CO2 atmosphere. Then the absorbance of each well was recorded at 490 nm using a 96-well plate reader. In most cases, the assay was performed in triplicate and the results were presented as half maximal inhibitory concentration (IC50). Optical density versus compound concentration was plotted and analyzed using non-linear regression equations (IDBS XLfit) and the IC50 for each compound was calculated.

Assay [2] concerns obese (fa/fa) Zucker rats. The format is in vivo. The method, then:
Male Zucker (fa/fa) rats and male Zucker lean rats (both from Charles River) at 10 weeks of age—a timepoint at which the Zucker fa/fa rats should show elevated food intake, body mass and elevated plasma lipid profile relative to their “lean” counterparts were singly housed in plastic bottomed cages and were given 14 days of habituation. During this period, animal body weight, food and water intakes were recorded daily. All animals were given ad-lib access to standard lab chow and water throughout the study. Once the 14 day baseline intake data were collected, the Zucker obese rats were assigned into treatment groups based on equivalent baseline data, i.e. all Zucker obese rats had equivalent daily food/water intakes and body weights. During this phase the rats also received two vehicle administrations as familiarisation to the dosing procedure. Immediately after the baseline phase, the treatment phase commenced. Test article and vehicle were administered at approximately 1 h prior to onset of the dark cycle. Dose scheduling varied according to group: 5× weekly dosing was Monday-Friday The study design was the following: Group A=Zucker lean male rats, vehicle treatment 5× week, oral, n=6, Group B=Zucker obese male rats, vehicle treatment 5× week, oral, n=6, Group C=Zucker obese male rats, I-4 2.5 mg/kg 5× week, oral, n=6.
Daily body weight, food and water intake were measured at approximately the same time of the day. At day −1 and day 7 of treatment phase.

The test system of a further assay is MDA-MB-468. Briefly: Cell proliferation assay, MDA-MB-468. The format is cell-based. Particulars: Homo sapiens; MDA-MB-468, after 72 hours. The method, then:
as §1, with “1.5×10^4 cells (depending on cell type) in each” for “1.5×10^4 cells in each”, “concentration (IC50).” for “concentration (IC50). Optical density versus compound concentration was plotted and analyzed using non-linear regression equations (IDBS XLfit) and the IC50 for each compound was calculated.”

The next assay deals with MDA-MB-231. Briefly: Cell proliferation assay, MDA-MB-231. Format: cell-based. As to conditions: Homo sapiens; MDA-MB-231, type BaB, 72 h. As for the experimental part:
as §1, with “1.5×10^4 cells (depending on cell type) in each” for “1.5×10^4 cells in each”, “concentration (IC50).” for “concentration (IC50). Optical density versus compound concentration was plotted and analyzed using non-linear regression equations (IDBS XLfit) and the IC50 for each compound was calculated.”

The next assay relates to DU4475. Nature of the assay: Cell proliferation assay, DU4475. Format: cell-based. As to conditions: Homo sapiens, DU-4475; DU4475, type Lu, 72 h. The method, then: as §1, with “1.5×10^4 cells (depending on cell type) in each” for “1.5×10^4 cells in each”, “concentration (IC50).” for “concentration (IC50). Optical density versus compound concentration was plotted and analyzed using non-linear regression equations (IDBS XLfit) and the IC50 for each compound was calculated.”

The test system of another assay is HCC-1569. Nature of the assay: Cell proliferation assay, HCC-1569. Format: cell-based. Particulars: Homo sapiens, HCC1569; HCC-1569, type BaA, 72 h. As for the experimental part:
as §1, with “1.5×10^4 cells (depending on cell type) in each” for “1.5×10^4 cells in each”, “concentration (IC50).” for “concentration (IC50). Optical density versus compound concentration was plotted and analyzed using non-linear regression equations (IDBS XLfit) and the IC50 for each compound was calculated.”

The next assay concerns MDA-MB-157. Briefly: Cell proliferation assay, MDA-MB-157. The format is cell-based. Particulars: Homo sapiens; MDA-MB-157, type BaB, 72 h. The method, then:
as §1, with “1.5×10^4 cells (depending on cell type) in each” for “1.5×10^4 cells in each”, “concentration (IC50).” for “concentration (IC50). Optical density versus compound concentration was plotted and analyzed using non-linear regression equations (IDBS XLfit) and the IC50 for each compound was calculated.”

The subject of the next assay is HCC-1428. Briefly: Cell proliferation assay, HCC-1428. The format is cell-based. Particulars: Homo sapiens, HCC1428; HCC-1428, type Lu, 72 h. As for the experimental part: as §1, with “1.5×10^4 cells (depending on cell type) in each” for “1.5×10^4 cells in each”, “concentration (IC50).” for “concentration (IC50). Optical density versus compound concentration was plotted and analyzed using non-linear regression equations (IDBS XLfit) and the IC50 for each compound was calculated.”

A further assay relates to ZR7530. Briefly: Cell proliferation assay, ZR7530. The format is cell-based. As to conditions: Homo sapiens, ZR-75-30; ZR7530, type Lu/HER+, 72 h. The method, then:
as §1, with “1.5×10^4 cells (depending on cell type) in each” for “1.5×10^4 cells in each”, “concentration (IC50).” for “concentration (IC50). Optical density versus compound concentration was plotted and analyzed using non-linear regression equations (IDBS XLfit) and the IC50 for each compound was calculated.”

For another assay, the system named is MDA-MB-468 cells. Nature of the assay: Long-term growth assay, MDA-MB-468. Format: cell-based. Particulars: MDA-MB-468, 1 μM, 10 days, crystal violet. An excerpt:
(§2) At the end of the assay, media was removed from the cells and the remaining cells were stained with crystal violet.

In the next assay the test system is HS578T cells. Nature of the assay: Long-term growth assay, HS578T. Format: cell-based. As to conditions: 1 μM, 7 days, crystal violet.
Description: as §2

Assay [3] deals with MDA-MB-468 TNBC Basal A cells. Nature of the assay: Nuclear localization of FOXO3a and IκB, MDA-MB-468. Format: cell-based. Particulars: MDA-MB-468, 1 μM, 24 hours. The method, then: MDA-MB-468 TNBC Basal A and BT-20 TNBC Basal B cells were exposed to DMSO or 1 μM Compound 1-3 for 24 hours and then stained for FOXO3a or IκB with or without DAPI nuclear stain. The stained cells were examined for nuclear localization.

Counter-ions that a name gives are not always drawn. Where only a bound is given, the exact number is not on record here.

Consider `O=C(/C=C\n1cnc(-c2cc(C(F)(F)F)cc(C(F)(F)F)c2)n1)NNc1ccccn1` [Compound I-4, (Z)-3-(3-(3,5-bis(trifluoromethyl)phenyl)-1H-1,2,4-triazol-1-yl)-N′-(pyridin-2-yl)acrylohydrazide hydrochloride], for which the IC50 in assay [1] is not above 1 µM. For the same compound, the “mean and cumulative food intake” value in [2] (2.5 mg/kg 5× weekly, oral, obese (fa/fa) Zucker rats) is “reduced mean and cumulative food intake”. For the same compound, in assay [2] (2.5 mg/kg 5× weekly, oral, compared to Zucker fa/fa controls), the body weight gain entry is listed as “significantly reduced weight gain”. In addition, the “body weight gain after washout” value in assay [2] (2 day washout phase, compared to Zucker fa/fa controls) is on record as “body weight gain still reduced”.

As for `O=C(/C=C\n1cnc(-c2cc(C(F)(F)F)cc(C(F)(F)F)c2)n1)NNc1cnccn1` [Compound I-3, (Z)-3-(3-(3,5-bis(trifluoromethyl)phenyl)-1H-1,2,4-triazol-1-yl)-N′-(pyrazin-2-yl)acrylohydrazide], the IC50 was not above 1 µM in assay [1]; 0.01 µM with MDA-MB-468; 0.01 µM in the assay with MDA-MB-231; 0.013 µM in the assay on DU4475; 0.96 µM with HCC-1569; 1.3 µM with MDA-MB-157. The results for the IC50 with HCC-1428 and with ZR7530 were 10.4 µM and 19 µM, respectively. The long-term growth entry in the assay with MDA-MB-468 cells and in the assay with HS578T cells was “inhibited the long-term growth” each time. Further, the “localization of FOXO3a and IκB” value in assay [3] was “both FOXO3a and IκB were localized in the cell nucleus”.
